Assay results published in ChEMBL document CHEMBL5465560, “Selectivity Literature for EUbOPEN Chemogenomic Library” (2024).
Each block holds one molecule with its values, some of them ahead of it.

Legend:
[1] = target: Mitogen-activated protein kinase kinase kinase 20 (Homo sapiens) (UniProt Q9NYL2); settings: at 10 µM
[2] = target: T1, Mitogen-activated protein kinase kinase kinase 2 (Homo sapiens) (UniProt Q9Y2U5); test: Selectivity interaction (KinomeScan (DiscoverX)) EUB0000655a MAP3K2; settings: at 10 µM
T1 sequence (whole entry): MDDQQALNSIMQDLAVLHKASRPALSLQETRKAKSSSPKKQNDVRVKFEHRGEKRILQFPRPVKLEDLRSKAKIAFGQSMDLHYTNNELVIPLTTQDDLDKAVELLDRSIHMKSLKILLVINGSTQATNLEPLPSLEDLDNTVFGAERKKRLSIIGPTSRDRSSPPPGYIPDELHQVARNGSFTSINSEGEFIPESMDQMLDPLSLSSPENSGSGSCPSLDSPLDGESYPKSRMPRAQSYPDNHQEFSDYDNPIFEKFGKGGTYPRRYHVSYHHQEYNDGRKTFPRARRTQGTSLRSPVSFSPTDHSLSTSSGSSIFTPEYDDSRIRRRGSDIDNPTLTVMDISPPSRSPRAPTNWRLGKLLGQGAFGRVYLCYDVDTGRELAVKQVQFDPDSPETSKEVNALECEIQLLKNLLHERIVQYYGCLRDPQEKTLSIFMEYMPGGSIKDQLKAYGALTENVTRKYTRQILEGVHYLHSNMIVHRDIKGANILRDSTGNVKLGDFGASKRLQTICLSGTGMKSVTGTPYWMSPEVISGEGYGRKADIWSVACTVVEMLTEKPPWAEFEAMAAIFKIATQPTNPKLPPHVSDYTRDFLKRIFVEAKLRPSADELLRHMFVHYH

[3] = target: Calcium/calmodulin-dependent protein kinase kinase 1 (Homo sapiens) (UniProt Q8N5S9); test: Selectivity interaction (KinomeScan (DiscoverX)) EUB0000655a CAMKK1; settings: at 10 µM
[4] = target: 5'-AMP-activated protein kinase catalytic subunit alpha-1 (Homo sapiens, UniProt Q13131); test: Selectivity interaction (KinomeScan (DiscoverX)) EUB0000655a PRKAA1; settings: at 10 µM
[5] = target: Cyclin-dependent kinase 5 (Homo sapiens, UniProt Q00535); test: Selectivity interaction (Kinase panel (KiNativ target engagement assay in Jurkat cells)) EUB0001635a CDK5; assay type: cell-based; settings: at 1 µM
[6] = target: Homeodomain-interacting protein kinase 3 (Homo sapiens, UniProt Q9H422); test: Selectivity interaction (Kinase panel (Invitrogen)) EUB0000639a HIPK3; settings: at 200 nM
[7] = target: Epithelial discoidin domain-containing receptor 1 (Homo sapiens) (UniProt Q08345); test: Selectivity interaction (Kinase panel (Invitrogen)) EUB0000639a DDR1; settings: at 200 nM
[8] = target: Tyrosine-protein kinase Yes (Homo sapiens) (UniProt P07947); test: Selectivity interaction (KinomeScan (DiscoverX)) EUB0000229b YES1; settings: at 10 µM
[9] = target: Phosphatidylinositol 4-kinase beta (Homo sapiens, UniProt Q9UBF8); test: Selectivity interaction (KinomeScan (DiscoverX)) EUB0001049a PI4KB; settings: at 1 µM
[10] = target: T2, cGMP-dependent protein kinase 2 (Homo sapiens) (UniProt Q13237); test: Selectivity interaction (KinomeScan (DiscoverX)) EUB0001049a PRKG2; settings: at 1 µM
T2 sequence (whole entry): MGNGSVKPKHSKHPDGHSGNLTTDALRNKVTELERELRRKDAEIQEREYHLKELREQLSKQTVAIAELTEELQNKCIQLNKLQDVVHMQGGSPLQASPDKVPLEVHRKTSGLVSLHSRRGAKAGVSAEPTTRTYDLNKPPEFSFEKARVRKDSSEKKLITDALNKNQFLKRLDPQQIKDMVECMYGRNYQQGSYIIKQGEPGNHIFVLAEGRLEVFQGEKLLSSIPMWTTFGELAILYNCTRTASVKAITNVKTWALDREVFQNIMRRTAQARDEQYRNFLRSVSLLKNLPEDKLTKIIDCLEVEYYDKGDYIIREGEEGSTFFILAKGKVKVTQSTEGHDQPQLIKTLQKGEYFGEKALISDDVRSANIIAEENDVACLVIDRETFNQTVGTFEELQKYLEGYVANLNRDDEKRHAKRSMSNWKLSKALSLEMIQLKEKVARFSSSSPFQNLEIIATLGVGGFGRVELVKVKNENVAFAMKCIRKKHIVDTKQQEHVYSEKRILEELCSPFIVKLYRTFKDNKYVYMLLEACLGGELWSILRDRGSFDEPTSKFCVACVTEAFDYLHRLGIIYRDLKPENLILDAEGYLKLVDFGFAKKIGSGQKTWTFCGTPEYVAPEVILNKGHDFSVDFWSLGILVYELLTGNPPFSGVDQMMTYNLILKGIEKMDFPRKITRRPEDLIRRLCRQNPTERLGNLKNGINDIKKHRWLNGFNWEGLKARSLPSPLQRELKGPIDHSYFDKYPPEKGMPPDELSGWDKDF

Sequence of Cyclin-dependent kinase 5 (Q00535 whole entry, looked up): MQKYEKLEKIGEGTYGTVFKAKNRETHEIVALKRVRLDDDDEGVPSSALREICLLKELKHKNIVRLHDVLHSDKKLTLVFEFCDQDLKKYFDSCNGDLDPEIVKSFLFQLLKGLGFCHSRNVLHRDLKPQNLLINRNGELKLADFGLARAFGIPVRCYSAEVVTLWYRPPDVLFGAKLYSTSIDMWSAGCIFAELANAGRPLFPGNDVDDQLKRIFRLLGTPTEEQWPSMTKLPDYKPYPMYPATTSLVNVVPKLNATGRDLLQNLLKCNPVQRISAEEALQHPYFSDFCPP
Sequence of 5'-AMP-activated protein kinase catalytic subunit alpha-1 (Q13131 whole entry, looked up): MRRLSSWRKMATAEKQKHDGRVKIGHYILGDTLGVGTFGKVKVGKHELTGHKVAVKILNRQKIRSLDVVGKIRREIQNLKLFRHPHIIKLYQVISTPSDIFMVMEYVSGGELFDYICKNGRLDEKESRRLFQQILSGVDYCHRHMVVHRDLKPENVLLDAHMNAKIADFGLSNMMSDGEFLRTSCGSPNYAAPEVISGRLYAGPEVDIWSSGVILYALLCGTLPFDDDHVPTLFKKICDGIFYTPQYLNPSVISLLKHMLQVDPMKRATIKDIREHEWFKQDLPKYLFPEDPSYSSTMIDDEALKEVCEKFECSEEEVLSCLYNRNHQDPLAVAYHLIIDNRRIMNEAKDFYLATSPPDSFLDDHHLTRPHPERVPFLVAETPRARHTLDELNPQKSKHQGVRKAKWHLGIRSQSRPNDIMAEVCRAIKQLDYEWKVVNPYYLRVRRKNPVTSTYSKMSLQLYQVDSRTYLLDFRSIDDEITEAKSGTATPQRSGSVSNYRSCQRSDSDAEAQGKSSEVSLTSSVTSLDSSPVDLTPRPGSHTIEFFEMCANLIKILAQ
Sequence of Tyrosine-protein kinase Yes (Homo sapiens) (P07947 2-543 limits assumed): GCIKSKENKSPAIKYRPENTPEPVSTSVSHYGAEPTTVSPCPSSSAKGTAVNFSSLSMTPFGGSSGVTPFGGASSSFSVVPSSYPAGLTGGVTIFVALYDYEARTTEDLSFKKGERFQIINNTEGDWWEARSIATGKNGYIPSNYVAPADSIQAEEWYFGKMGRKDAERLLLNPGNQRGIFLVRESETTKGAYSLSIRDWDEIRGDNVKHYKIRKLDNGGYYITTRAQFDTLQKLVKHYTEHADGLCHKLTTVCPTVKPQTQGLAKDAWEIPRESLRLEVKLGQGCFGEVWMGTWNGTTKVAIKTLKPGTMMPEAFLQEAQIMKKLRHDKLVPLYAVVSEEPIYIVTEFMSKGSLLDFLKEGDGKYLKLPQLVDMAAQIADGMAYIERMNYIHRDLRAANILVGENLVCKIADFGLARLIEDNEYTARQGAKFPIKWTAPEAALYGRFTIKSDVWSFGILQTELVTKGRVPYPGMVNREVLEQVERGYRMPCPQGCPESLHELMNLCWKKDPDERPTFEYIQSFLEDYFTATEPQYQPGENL
Sequence of Phosphatidylinositol 4-kinase beta (Q9UBF8 2-816 limits assumed): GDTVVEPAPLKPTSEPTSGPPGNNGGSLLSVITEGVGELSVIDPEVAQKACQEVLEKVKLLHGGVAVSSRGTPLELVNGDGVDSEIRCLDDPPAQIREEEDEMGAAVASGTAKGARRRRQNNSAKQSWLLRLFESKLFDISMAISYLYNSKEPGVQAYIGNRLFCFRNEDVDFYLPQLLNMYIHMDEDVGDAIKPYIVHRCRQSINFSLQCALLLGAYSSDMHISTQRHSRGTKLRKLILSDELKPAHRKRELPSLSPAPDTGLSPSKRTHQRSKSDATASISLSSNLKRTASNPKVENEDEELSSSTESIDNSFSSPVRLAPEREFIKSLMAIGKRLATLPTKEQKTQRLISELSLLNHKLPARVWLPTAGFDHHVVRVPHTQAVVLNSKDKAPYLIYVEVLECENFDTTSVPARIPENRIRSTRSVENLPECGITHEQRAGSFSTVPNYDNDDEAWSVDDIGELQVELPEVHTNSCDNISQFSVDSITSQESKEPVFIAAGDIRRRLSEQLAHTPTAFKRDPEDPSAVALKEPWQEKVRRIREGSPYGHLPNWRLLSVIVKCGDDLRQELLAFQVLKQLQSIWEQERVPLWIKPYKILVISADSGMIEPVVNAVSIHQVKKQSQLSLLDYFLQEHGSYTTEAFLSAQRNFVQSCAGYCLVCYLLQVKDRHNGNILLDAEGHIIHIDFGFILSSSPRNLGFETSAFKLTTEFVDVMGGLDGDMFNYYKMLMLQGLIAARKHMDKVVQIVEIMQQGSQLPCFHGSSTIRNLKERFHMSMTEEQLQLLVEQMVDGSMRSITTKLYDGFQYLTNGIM
Sequence of Mitogen-activated protein kinase kinase kinase 20 (Homo sapiens) (Q9NYL2 2-800 limits assumed): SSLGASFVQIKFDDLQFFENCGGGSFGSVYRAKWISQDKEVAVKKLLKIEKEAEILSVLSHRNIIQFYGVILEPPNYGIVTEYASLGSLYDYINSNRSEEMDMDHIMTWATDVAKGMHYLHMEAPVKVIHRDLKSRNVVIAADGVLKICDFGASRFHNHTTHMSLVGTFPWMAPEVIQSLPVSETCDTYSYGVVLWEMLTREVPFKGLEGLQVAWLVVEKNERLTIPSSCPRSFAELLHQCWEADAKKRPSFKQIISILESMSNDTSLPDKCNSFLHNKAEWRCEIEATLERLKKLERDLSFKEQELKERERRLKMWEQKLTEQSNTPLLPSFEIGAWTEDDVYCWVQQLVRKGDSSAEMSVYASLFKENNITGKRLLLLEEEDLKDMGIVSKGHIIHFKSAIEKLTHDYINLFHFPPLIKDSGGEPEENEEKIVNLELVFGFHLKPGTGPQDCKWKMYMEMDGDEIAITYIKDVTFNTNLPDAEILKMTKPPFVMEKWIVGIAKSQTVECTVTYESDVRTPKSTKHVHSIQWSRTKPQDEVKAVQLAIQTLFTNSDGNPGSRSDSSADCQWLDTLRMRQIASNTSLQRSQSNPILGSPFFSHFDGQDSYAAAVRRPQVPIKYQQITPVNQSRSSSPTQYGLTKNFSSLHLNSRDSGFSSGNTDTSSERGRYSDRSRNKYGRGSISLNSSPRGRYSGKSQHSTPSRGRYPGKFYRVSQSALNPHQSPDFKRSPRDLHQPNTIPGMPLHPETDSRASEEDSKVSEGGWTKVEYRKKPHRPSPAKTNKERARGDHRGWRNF
Sequence of Epithelial discoidin domain-containing receptor 1 (Homo sapiens) (Q08345 whole entry, the tested form may be a part): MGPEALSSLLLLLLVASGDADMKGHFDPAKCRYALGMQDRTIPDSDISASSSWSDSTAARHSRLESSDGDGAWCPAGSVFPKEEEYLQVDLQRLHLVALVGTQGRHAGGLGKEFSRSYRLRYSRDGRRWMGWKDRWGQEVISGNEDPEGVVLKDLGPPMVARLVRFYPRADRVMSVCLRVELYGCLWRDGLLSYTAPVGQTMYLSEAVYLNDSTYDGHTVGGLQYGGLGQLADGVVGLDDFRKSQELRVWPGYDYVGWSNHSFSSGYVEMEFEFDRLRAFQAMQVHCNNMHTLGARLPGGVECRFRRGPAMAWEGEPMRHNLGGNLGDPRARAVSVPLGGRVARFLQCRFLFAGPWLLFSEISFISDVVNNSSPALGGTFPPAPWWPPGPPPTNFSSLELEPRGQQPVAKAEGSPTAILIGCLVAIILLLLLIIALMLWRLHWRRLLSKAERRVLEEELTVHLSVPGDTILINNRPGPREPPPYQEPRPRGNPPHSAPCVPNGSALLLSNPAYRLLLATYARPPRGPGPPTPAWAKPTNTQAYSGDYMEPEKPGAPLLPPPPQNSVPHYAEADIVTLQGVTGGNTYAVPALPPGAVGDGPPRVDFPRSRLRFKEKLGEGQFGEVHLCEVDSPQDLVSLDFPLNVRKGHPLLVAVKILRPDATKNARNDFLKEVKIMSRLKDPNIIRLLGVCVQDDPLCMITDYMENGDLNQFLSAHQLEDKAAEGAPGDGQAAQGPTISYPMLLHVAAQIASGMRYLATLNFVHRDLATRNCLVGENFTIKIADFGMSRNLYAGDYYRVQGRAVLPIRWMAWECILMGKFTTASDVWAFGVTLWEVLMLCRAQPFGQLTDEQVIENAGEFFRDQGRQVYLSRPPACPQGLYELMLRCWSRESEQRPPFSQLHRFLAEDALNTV
Sequence of Calcium/calmodulin-dependent protein kinase kinase 1 (Homo sapiens) (Q8N5S9 whole entry, looked up): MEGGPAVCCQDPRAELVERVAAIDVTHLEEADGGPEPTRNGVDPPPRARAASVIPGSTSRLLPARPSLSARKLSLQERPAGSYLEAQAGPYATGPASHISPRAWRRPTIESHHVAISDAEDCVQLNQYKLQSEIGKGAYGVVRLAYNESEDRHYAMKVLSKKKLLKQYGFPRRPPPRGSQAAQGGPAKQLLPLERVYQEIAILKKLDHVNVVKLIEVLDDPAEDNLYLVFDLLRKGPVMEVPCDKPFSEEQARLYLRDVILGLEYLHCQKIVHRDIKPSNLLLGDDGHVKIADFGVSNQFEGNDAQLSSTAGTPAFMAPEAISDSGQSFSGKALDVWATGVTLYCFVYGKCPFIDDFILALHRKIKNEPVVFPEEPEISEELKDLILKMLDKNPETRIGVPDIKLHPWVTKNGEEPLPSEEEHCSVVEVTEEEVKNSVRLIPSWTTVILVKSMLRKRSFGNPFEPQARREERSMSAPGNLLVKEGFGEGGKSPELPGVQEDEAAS

% of control [1]: 100%
SMILES: CCN(CC)CCCCNc1ncc2cc(-c3cc(OC)cc(OC)c3)c(NC(=O)NC(C)(C)C)nc2n1

SMILES: CN(C)CCOc1ccc(-c2nc(-c3ccncc3)c(-c3ccc4c(c3)CC/C4=N\O)[nH]2)cc1
% of control [2]: 69%
% of control [3]: 99%
% of control [4]: 100%

SMILES: C=CC(=O)Nc1ccc(C(=O)Nc2[nH]nc3c2CN(C(=O)N[C@H](CN(C)C)c2ccccc2)C3(C)C)cc1
% of engagement ([5]; Selectivity number of off-targets 0.0, Selectivity number of targets 233.0, Source Knowledge https://www.sciencedirect.com/science/article/pii/S2451945619300674?via%3Dihub): -1.7%
% of engagement [5]: 0.4%

% of inhibition [6]: 5.1%
% of inhibition [7]: -1.2%
SMILES: CC[C@@H]1[C@H](F)C(=O)N[C@@H]1COc1nccc2cc(C(N)=O)c(OC)cc12 [ZIMLOVISERTIB]

SMILES: COc1cc(N(C)c2ccnc3ccc(C(F)(F)F)cc23)cc(OC)c1OC
% binding [8]: 83%

SMILES: COc1cc(Nc2nc(C)cc(-c3cnn4nc(OC)ccc34)n2)cc(C(F)(F)F)c1
% of control [9]: 85%
% of control [10]: 70%
